# Results published in patent publication US20110268807A1, “Biodegradable Microspheres and Methods of Use Thereof” (priority 2008, published 2011).
# Legend:
# [1] = Release of atropine from hydrogel in medium at 37° C., static conditions; type: physicochemical
# Excerpt: FIG. 16 depicts release rate of atropine from hydrogel. […] Hydrogel for the second release test (B) was soaked in excess drug solution to reach maximum swelling. Almost no drug retention was observed; therefore, the release is approximately zero.
# [2] = Atropine release per cycle (atropine content in filtrate), nanoparticles; type: physicochemical; conditions: FIG. 17B
# Excerpt: FIGS. 17A and 17B depict atropine release. […] The first sharp decrease in atropine release would be related to the excess atropine in solution. The slow release characteristic of the second slope would be the drug release associated with nanoparticle degradation.
compound,measurement,setting,value
CN1[C@@H]2CC[C@H]1C[C@@H](OC(=O)C(CO)c1ccccc1)C2 (stereo partly shown) [atropine],atropine release from hydrogel,"[1]; first preliminary test (A): hydrogel absorbed all of the drug solution, medium at 37° C., static conditions",68%
same,time course of atropine release from hydrogel,"[1]; first preliminary test (A), burst effect",most of which occurred during the first two hours
same,atropine release from hydrogel,"[1]; second release test (B): hydrogel soaked in excess drug solution to maximum swelling, almost no drug retention",approximately zero
same,cumulative release percentage per cycle,[2],all the atropine was release by the seventh cycle
